Measured values reported in patent US20200017495A1, “NOVEL HETEROCYCLIC COMPOUNDS AND THEIR USE IN PREVENTING OR TREATING BACTERIAL INFECTIONS” (priority 2017, published 2020).
Where two headings read alike, the source gives them in different places.

Assays:
[1] = system: Citrobacter freundii (CFR) isolates; test: MIC of compounds alone and combined with antibacterials, broth microdilution (CLSI); type: cell-based
Method in brief: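 Log-phase isolates were inoculated at a final 5.10^5 CFU/mL in cation-adjusted Mueller-Hinton broth and incubated 16-20 h at 35° C in ambient air. MIC was the lowest concentration preventing visible growth; for combinations, the antibacterial MIC was read at each compound concentration.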

[2] = system: Citrobacter murliniae (CMU) isolates; test: as above; type: cell-based; details: for MIC ATB in combination: CMU 210102
Method in brief: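 Growth inhibition was read visually after 16-20 h at 35° C, giving compound MICs and antibacterial MICs at each fixed compound level. Bacteria in log phase were inoculated at 5.10^5 CFU/mL in ca-MHB onto DMSO-spotted compound or compound/antibacterial dilutions per CLSI microdilution.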

[3] = strain CFR UFR10, genotype OXA-48
[4] = strain CFR UFR11, genotype TEM-1, OXA-1, OXA-48
[5] = strain CFR UFR83, genotype TEM-3, AmpC
[6] = strain CFR UFR146, genotype TEM-1, KPC-2
[7] = strain CFR UFR248, genotype CTX-M-15
[8] = strain CFR UFR249, genotype TEM-1, CTX-M-15
[9] = strain CFR UFR250, genotype TEM-1, SHV-28, CTX-M-15
[10] = strain CFR UFR253, genotype TEM-1, SHV-12, OXA-48
[11] = strain CFR UFR254, genotype VEB-1b, OXA-48, qnrA

C=CC1=C(C(=O)O)N2C(=O)[C@@H](NC(=O)/C(=N\OCC(=O)O)c3csc(N)n3)[C@H]2SC1 [FIX, Cefixime]
8 µg/mL: MIC ATB in combination ([1]; strain CFR UFR253, with AF3 @ 8 μg/mL)
4 µg/mL: MIC ATB in combination ([1]; CFR UFR248, CLA @ 4 μg/mL)
>128 µg/mL: MIC ATB in combination ([1]; CFR UFR37, CLA @ 4 μg/mL) | MIC ATB in combination ([1]; CFR UFR83, AF2 @ 8 μg/mL) | MIC ATB in combination ([1]; CFR UFR83, AF3 @ 8 μg/mL) | MIC ATB in combination ([1]; CFR UFR83, CLA @ 4 μg/mL) | MIC [1, 3] | MIC ([1]; strain CFR UFR37, genotype TEM-1, CTX-M-15, NDM-1) | MIC [1, 5] | MIC ([1]; strain CFR UFR147, genotype TEM-1, CTX-M-15, OXA-1, OXA-181, OXA-10, OXA-9, NDM-1, ArmA, dfrA12, aadA2, antibiotic alone) | MIC ATB in combination ([1]; strain CFR UFR147, with CLA @ 4 μg/mL) | MIC ([1]; strain CFR UFR148, genotype TEM-1, TEM-2, CTX-M-15, NDM-1, antibiotic alone) | MIC ATB in combination ([1]; strain CFR UFR148, with CLA @ 4 μg/mL) | MIC [1, 7] | MIC [1, 8] | MIC ([1]; strain CFR UFR250, compound alone) | MIC [1, 9] | MIC ([1]; strain CFR UFR251, genotype SHV-11, VIM-1, antibiotic alone) | MIC ATB in combination ([1]; strain CFR UFR251, with CLA @ 4 μg/mL) | MIC ([1]; strain CFR UFR252, genotype VIM-2, antibiotic alone) | MIC ATB in combination ([1]; strain CFR UFR252, with AF2 @ 8 μg/mL) | MIC ATB in combination ([1]; strain CFR UFR252, with AF3 @ 8 μg/mL) | MIC ATB in combination ([1]; strain CFR UFR252, with CLA @ 4 μg/mL) | MIC [1, 10] | MIC ATB in combination ([1]; strain CFR UFR253, with CLA @ 4 μg/mL) | MIC ATB in combination ([2]; AF2 @ 8 μg/mL) | MIC ATB in combination ([2]; AF3 @ 8 μg/mL) | MIC ATB in combination ([2]; CLA @ 4 μg/mL) | MIC ([2]; strain CMU 210102, genotype VIM-4)
64 µg/mL: MIC ATB in combination ([1]; CFR UFR146, CLA @ 4 μg/mL) | MIC [1, 6]
1 µg/mL: MIC ATB in combination ([1]; CFR UFR146, AF3 @ 8 μg/mL) | MIC ATB in combination ([1]; strain CFR UFR253, with AF2 @ 8 μg/mL)
<=0.25 μg/mL: MIC ATB in combination ([1]; CFR UFR10, AF3 @ 8 μg/mL) | MIC ATB in combination ([1]; CFR UFR37, AF2 @ 8 μg/mL) | MIC ATB in combination ([1]; CFR UFR37, AF3 @ 8 μg/mL) | MIC ATB in combination ([1]; CFR UFR248, AF3 @ 8 μg/mL) | MIC ATB in combination ([1]; CFR UFR249, AF2 @ 8 μg/mL) | MIC ATB in combination ([1]; CFR UFR249, AF3 @ 8 μg/mL) | MIC ATB in combination ([1]; strain CFR UFR254, with AF2 @ 8 μg/mL)
32 µg/mL: MIC ATB in combination ([1]; CFR UFR10, CLA @ 4 μg/mL) | MIC ATB in combination ([1]; CFR UFR11, AF3 @ 8 μg/mL) | MIC ATB in combination ([1]; CFR UFR11, CLA @ 4 μg/mL) | MIC [1, 4] | MIC [1, 11]
16 µg/mL: MIC ATB in combination ([1]; CFR UFR11, AF2 @ 8 μg/mL) | MIC ATB in combination ([1]; strain CFR UFR254, with CLA @ 4 μg/mL)
0.5 µg/mL: MIC ATB in combination ([1]; strain CFR UFR254, with AF3 @ 8 μg/mL)
2 µg/mL: MIC ATB in combination ([1]; CFR UFR146, AF2 @ 8 μg/mL) | MIC ATB in combination ([1]; CFR UFR249, CLA @ 4 μg/mL) | MIC ATB in combination ([1]; CFR UFR250, CLA @ 4 μg/mL)
<0.25 µg/mL: MIC ATB in combination ([1]; CFR UFR10, AF2 @ 8 μg/mL) | MIC ATB in combination ([1]; CFR UFR248, AF2 @ 8 μg/mL) | MIC ATB in combination ([1]; CFR UFR250, AF2 @ 8 μg/mL) | MIC ATB in combination ([1]; CFR UFR250, AF3 @ 8 μg/mL) | MIC ATB in combination ([1]; strain CFR UFR147, with AF2 @ 8 μg/mL) | MIC ATB in combination ([1]; strain CFR UFR147, with AF3 @ 8 μg/mL) | MIC ATB in combination ([1]; strain CFR UFR148, with AF2 @ 8 μg/mL) | MIC ATB in combination ([1]; strain CFR UFR148, with AF3 @ 8 μg/mL) | MIC ATB in combination ([1]; strain CFR UFR251, with AF2 @ 8 μg/mL) | MIC ATB in combination ([1]; strain CFR UFR251, with AF3 @ 8 μg/mL)

CO/N=C(\C(=O)N[C@@H]1C(=O)N2C(C(=O)O)=C(COC(N)=O)CS[C@H]12)c1ccco1 [FUR, Cefuroxime]
32 µg/mL: MIC [1, 10] | MIC [1, 11]
>256 µg/mL: MIC [1, 3] | MIC [1, 4] | MIC [1, 5] | MIC [1, 6] | MIC [1, 7] | MIC [1, 8] | MIC [1, 9]

COCC1=C(C(=O)O)N2C(=O)[C@@H](NC(=O)/C(=N\OC)c3csc(N)n3)[C@H]2SC1 [POD, Cefpodoxime]
32 µg/mL: MIC ([1]; Citrobacter freundii, strain CFR UFR253, genotype TEM-1, SHV-12, OXA-48, read-out: MIC) | MIC ([1]; Citrobacter freundii, strain CFR UFR254, genotype VEB-1b, OXA-48, qnrA, read-out: MIC)
